Measured values from US9914732B2, “Diazabicyclo[4.3.1]decane derivatives for treatment of psychiatric disorders” (Max-Planck-Gesellschaft zur Forderung der Wissenschaften …, priority 2014, dated 2018).

Experiments:
FKBP51 = target: T1, FKBP51 (Homo sapiens, UniProt Q13451); assay: Fluorescence polarization (FP) assay, binding to the FK506-binding domain of FKBP51; conditions: FK506-binding domain of FKBP51 (FKBP51FK1), competition with fluorescent ligand 2b
T1 sequence (Q13451 42-130 limits assumed): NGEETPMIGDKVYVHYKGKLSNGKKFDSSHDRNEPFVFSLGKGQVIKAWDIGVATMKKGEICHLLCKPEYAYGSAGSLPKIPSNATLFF
Description: (§1) In the present invention, in vitro fluorescence polarization assays with the compounds of the general formula (I) were performed to determine the binding affinities to FKBP51 and FKBP52 or to the isolated FK506-binding domains of FKBP51 and FKBP52 ([…]). Binding to the isolated FK506-binding domains is reliably indicative of binding to the full length proteins. The affinities for the isolated FK506-binding domains and for full-length FKBP51 or FKBP52 are the same for all compounds tested so far (Kozany et al, ChemBioChem 2009, 10, 1402-1410).
(§2) Example 11: Fluorescence Polarization (FP) Assays
(§3) In-vitro fluorescence polarization assays were performed to determine the binding affinities for FKBP51 and 52 according to a literature procedure (Kozany, C.; Marz, A.; Kress, C.; Hausch, F., Fluorescent probes to characterise FK506-binding proteins. Chembiochem 2009, 10, (8), 1402-10).
(§4) For fluorescence polarization assays the fluorescent ligand 2b was dissolved in HEPES (20 mm, pH 8), Triton-X100 (0.01%), at double the concentration required for the final sample. The target protein was also diluted in this assay buffer at double the highest concentration required for the final sample. This protein stock was used for a 1:1 serial dilution.
(§5) The fluorescent ligand 2b was diluted in assay buffer to a concentration double the final concentration (20 nM 2b). The inventive compound was dissolved in DMSO to reach a 100-times concentrated stock solution. This was used for a 1:1 serial dilution in DMSO. Every sample of this serial dilution was diluted by a factor of 50 in assay buffer supplemented with ligand 2b to achieve a 2× concentrated mixture of ligand 2b and the inventive compound. To this competitive ligand double the protein concentration for 2b assay: FKBP51FK1 560 nM (2×280 nM) or FKBP52FK1 800 nM (2×400 nM) diluted in assay buffer was added.
(§6) The samples were transferred to black 384-well assay plates (No.: 3575; Corning Life Sciences). After incubation at room temperature for 30 min the fluorescence anisotropy was measured (GENios Pro, Tecan, Männedorf, Switzerland) by using an excitation filters of 485/20 nm and emission filters of 535/25 nm. The binding assays were performed in duplicates in the plate format.
(§7) The competition curves were analyzed by using SigmaPlot9. Data were fitted to a four parameter logistic curve to deduce the IC50 values. For the analysis of K1 values, data were fitted to the following equation (Z. X. Wang, FEBS Lett. 1995, 360, 111-114). A=(Amax−Amin)/[L]t×(([L]t×((2×((Klig+Kcomp+[L]t+[I]t−[R]t)^2−3×(Kcomp×([L]t−[R]t)+Klig×([I]t−[R]t)+[…]))^0.5×COS(ARCCOS((−2×(Klig+Kcomp+[L]t+[I]t−[R]t)^3+9×(Klig+Kcomp+[L]t+[I]t−[R]t)×(Kcomp×([L]t−[R]t)+Klig×([I]t−[R]t)+Klig×Kcomp)−27×(−1×Klig×Kcomp×[R]t))/(2×((((Klig+Kcomp+[L]t+[I]t−[R]t)^2−3×(Kcomp×([L]t−[R]t)+Klig×([I]t−[R]t)+Klig×Kcomp))^3)^0.5)))/3))−(Klig+Kcomp+[L]t+[I]t−[R]t)))/((3×Klig)+((2×((Klig+Kcomp+[L]t+[I]t−[R]t)^2−3×(Kcomp×([L]t−[R]t)+Klig×([I]t−[R]t)+Klig×Kcomp))^0.5×COS(ARCCOS((−2×(Klig+Kcomp+[L]t+[I]t−[R]t)^3+9×(Klig+Kcomp+[L]t+[I]t−[R]t)×(Kcomp×([L]t−[R]t)+Klig×([I]t−[R]t)+Klig×Kcomp)−27×(−1×Klig×Kcomp×[R]t))/(2×((((Klig+Kcomp+[L]t+[I]t−[R]t)^2−3×(Kcomp×([L]t−[R]t)+Klig×([I]t−[R]t)+Klig×Kcomp))^3)^0.5)))/3))−(Klig+Kcomp+[L]t+[I]t−[R]t)))+Amin
(§8) In this equation Klig and Kcomp stand for the Kd values of the used tracer or competing inhibitor, [I]t is referring to the total concentration of the titrated inhibitor.

FKBP52 = target: T2, FKBP52 (Homo sapiens, UniProt Q02790); assay: Fluorescence polarization (FP) assay, binding to the FK506-binding domain of FKBP52; conditions: FK506-binding domain of FKBP52 (FKBP52FK1), competition with fluorescent ligand 2b
T2 sequence (Q02790 50-138 limits assumed): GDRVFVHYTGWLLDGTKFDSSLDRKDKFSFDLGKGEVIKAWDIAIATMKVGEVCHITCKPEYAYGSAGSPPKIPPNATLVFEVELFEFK
Description: as §1, §2, §3, §4, §5, §6, §7, §8

Compound	Ki (FKBP51) [nM]	Ki (FKBP52) [nM]
C#CCN1C[C@H](COC)[C@H]2CCC[C@@H](C1=O)N2S(=O)(=O)c1cccc(C(N)=O)c1 [Compound N4, 3-(((1S,5S,6R)-5-(methoxymethyl)-2-oxo-3-(prop-2-yn-1-yl)-3,10-diazabicyclo[4.3.1]decan-10-yl)sulfonyl)benzamide]	100 to 500	100 to 500
C=CC1CN(CCNC)C(=O)C2CCCC1N2S(=O)(=O)c1cc(Cl)cc(Cl)c1 (stereo in doubt) [Compound J19, (1S,5R,6R)-10-((3,5-dichlorophenyl)sulfonyl)-3-(2-(methylamino)ethyl)-5-vinyl-3,10-diazabicyclo[4.3.1]decan-2-one]	100 to 500	100 to 500
C=C[C@@H]1CN(Cc2ccccn2)C(=O)[C@@H]2CCC[C@H]1N2S(=O)(=O)c1ccc2[nH]c(=O)sc2c1 [Compound K4, 6-(((1S,5R,6R)-2-oxo-3-(pyridin-2-ylmethyl)-5-vinyl-3,10-diazabicyclo[4.3.1]decan-10-yl)sulfonyl)benzo[d]thiazol-2(3H)-one]	≤ 100	≤ 100
CO[C@H]1CN(C)C(=O)[C@@H]2CCC[C@H]1N2S(=O)(=O)c1cc(Cl)cc(Cl)c1 [Compound H1.3, (1S,5S,6R)-10-((3,5-dichlorophenyl)sulfonyl)-5-methoxy-3-methyl-3,10-diazabicyclo[4.3.1]decan-2-one]	500 to 1000	500 to 1000
C#CCN1C[C@H](COC)[C@H]2CCC[C@@H](C1=O)N2S(=O)(=O)c1ccc(-c2ncccn2)cc1 [Compound N15, (1S,5S,6R)-5-(methoxymethyl)-3-(prop-2-yn-1-yl)-10-((4-(pyrimidin-2-yl)phenyl)sulfonyl)-3,10-diazabicyclo[4.3.1]decan-2-one]	100 to 500	100 to 500
COCCCN1CC(CO)C2CCCC(C1=O)N2S(=O)(=O)c1cc(Cl)cc(Cl)c1 (stereo in doubt) [Compound J6, (1S,5R,6R)-10-((3,5-dichlorophenyl)sulfonyl)-5-(hydroxymethyl)-3-(3-methoxypropyl)-3,10-diazabicyclo[4.3.1]decan-2-one]	100 to 500	500 to 1000
C=CC1CN(Cc2ccccn2)C(=O)C2CCCC1N2S(=O)(=O)c1ccccc1 (stereo in doubt) [Compound K13, (1S,5R,6R)-10-(phenylsulfonyl)-3-(pyridin-2-ylmethyl)-5-vinyl-3,10-diazabicyclo[4.3.1]decan-2-one]	500 to 1000	500 to 1000
C=CC1CNC(=O)C2CCCC1N2S(=O)(=O)c1cc(Cl)cc(Cl)c1 (stereo in doubt) [Compound I8, (1S,5R,6R)-10-((3,5-dichlorophenyl)sulfonyl)-5-vinyl-3,10-diazabicyclo[4.3.1]decan-2-one]	500 to 1000	500 to 1000
COC[C@H]1CN(Cc2cnn[nH]2)C(=O)[C@@H]2CCC[C@H]1N2S(=O)(=O)c1cc(Br)cc(C(N)=O)c1 [Compound N20, 3-(((1S,5S,6R)-3-((1H-1,2,3-triazol-5-yl)methyl)-5-(methoxymethyl)-2-oxo-3,10-diazabicyclo[4.3.1]decan-10-yl)sulfonyl)-5-bromobenzamide]	≤ 100	≤ 100
C=CC1CN(Cc2ccccn2)C(=O)C2CCCC1N2S(=O)(=O)c1ccc(OC)c(Cl)c1 (stereo in doubt) [Compound K10, (1S,5R,6R)-10-((3-chloro-4-methoxyphenyl)sulfonyl)-3-(pyridin-2-ylmethyl)-5-vinyl-3,10-diazabicyclo[4.3.1]decan-2-one]	100 to 500	100 to 500
O=C1NC[C@@H](O)[C@H]2CCC[C@@H]1N2S(=O)(=O)c1cc(Cl)cc(Cl)c1 [Compound H1.4, (1S,5R,6R)-10-((3,5-dichlorophenyl)sulfonyl)-5-hydroxy-3,10-diazabicyclo[4.3.1]decan-2-one]	1000 to 5000	1000 to 5000
C#CCN1C[C@H](COC)[C@H]2CCC[C@@H](C1=O)N2S(=O)(=O)c1ccc(-c2ccccc2)nc1 [Compound N14, (1S,5S,6R)-5-(methoxymethyl)-10-((6-phenylpyridin-3-yl)sulfonyl)-3-(prop-2-yn-1-yl)-3,10-diazabicyclo[4.3.1]decan-2-one]	100 to 500	100 to 500
COC[C@H]1CN(Cc2cnn[nH]2)C(=O)[C@@H]2CCC[C@H]1N2S(=O)(=O)c1ccc(-c2ccccc2)nc1 [Compound N26, (1S,5S,6R)-3-((1H-1,2,3-triazol-5-yl)methyl)-5-(methoxymethyl)-10-((6-phenylpyridin-3-yl)sulfonyl)-3,10-diazabicyclo[4.3.1]decan-2-one]	≤ 100	≤ 100
C#CCN1C[C@H](COC)[C@H]2CCC[C@@H](C1=O)N2S(=O)(=O)c1cccnc1 [Compound N13, (1S,5S,6R)-5-(methoxymethyl)-3-(prop-2-yn-1-yl)-10-(pyridin-3-ylsulfonyl)-3, 10-diazabicyclo[4.3.1]decan-2-one]	500 to 1000	500 to 1000
C=CC1CN(Cc2ccccn2)C(=O)C2CCCC1N2S(=O)(=O)c1cccnc1 (stereo in doubt) [Compound K26, (1S,5R,6R)-3-(pyridin-2-ylmethyl)-10-(pyridin-3-ylsulfonyl)-5-vinyl-3,10-diazabicyclo[4.3.1]decan-2-one]	100 to 500	100 to 500
COc1ccc(OCCN2C[C@H](CCO)[C@H]3CCC[C@@H](C2=O)N3S(=O)(=O)c2cc(Cl)cc(Cl)c2)cc1OC [Compound D8, (1S,5S,6R)-10-((3,5-dichlorophenyl)sulfonyl)-3-(2-(3,4-dimethoxyphenoxy)ethyl)-5-(2-hydroxyethyl)-3,10-diazabicyclo[4.3.1]decan-2-one]	≤ 100	≤ 100
COC[C@H]1CN(Cc2cnn[nH]2)C(=O)[C@@H]2CCC[C@H]1N2S(=O)(=O)c1cccc(C(N)=O)c1 [Compound N19, 3-(((1S,5S,6R)-3-((1H-1,2,3-triazol-5-yl)methyl)-5-(methoxymethyl)-2-oxo-3,10-diazabicyclo[4.3.1]decan-10-yl)sulfonyl)benzamide]	≤ 100	≤ 100
C=CC1CN(CC(N)=O)C(=O)C2CCCC1N2S(=O)(=O)c1cc(Cl)cc(Cl)c1 (stereo in doubt) [Compound J11, 2-((1S,5R,6R)-10-((3,5-dichlorophenyl)sulfonyl)-2-oxo-5-vinyl-3,10-diazabicyclo[4.3.1]decan-3-yl)acetamide]	100 to 500	100 to 500
COC[C@H]1CN(Cc2cnn[nH]2)C(=O)[C@@H]2CCC[C@H]1N2S(=O)(=O)c1cc(Cl)c(NC(C)=O)c(Cl)c1 [Compound N24, N-(4-(((1S,5S,6R)-3-((1H-1,2,3-triazol-5-yl)methyl)-5-(methoxymethyl)-2-oxo-3,10-diazabicyclo[4.3.1]decan-10-yl)sulfonyl)-2,6-dichlorophenyl)acetamide]	≤ 100	≤ 100
COC[C@H]1CN(Cc2cnn[nH]2)C(=O)[C@@H]2CCC[C@H]1N2S(=O)(=O)c1ccc(NC(C)=O)c(Cl)c1 [Compound N23, N-(4-(((1S,5S,6R)-3-((1H-1,2,3-triazol-5-yl)methyl)-5-(methoxymethyl)-2-oxo-3,10-diazabicyclo[4.3.1]decan-10-yl)sulfonyl)-2-chlorophenyl)acetamide]	≤ 100	≤ 100
